Read-outs that look alike come from different tables or passages of the source. Marks after values point to notes of the source that are not given here. Where a SMILES comes first, the peptide text is derived from it. Bridges are numbered along the chain shown (N, C = ends). [ ]: non-standard residue; d: D form. S5 = C=CCCC[C@](C)(N)C(=O)O
Columns and labels:
erythrocytes (RBCs) = assay type: cell-based, human; settings: for Hemolytic activity, lysed RBCs: 1 h
Experimental: (§1) Fresh venous blood from healthy donors was collected in lepirudine tubes (50 μg mL-1). Then 50 μL of blood were transferred to round-bottom 96-wells plate containing 150 μL of peptides previously diluted in RPMI-1640—GlutaMAX-I without phenol red (Gibco). 1:4 diluted blood was used as control. 50 μL of blood mixed with 150 μl 5% Tween-20 were used as positive control. After 1 h incubation at 37° C. and 5% CO2, the plate was centrifuged at 800 g, 150 μL of each sample were transferred to a flat-bottom 96-wells plate and the absorbance at 450 nm was measured. The percentage of hemolysis was calculated following the formula reported below: […]
To evaluate the hemolytic effect of the peptides on erythrocytes the blood was collected as reported above and centrifuged at 250 g for 10 min. Then plasma was discarded, and red blood cells were washed with 150 mM NaCl in 10 mM Tris pH 7.4 for three times. Next, the pellet was dilute 100 times with saline Tris buffer. 100 μL of this solution were added to round-bottom 96-wells plate containing 100 μL of peptides previously diluted in saline Tris buffer. After 1 h incubation at 37° C. and 5% CO2, the plate was centrifuged and the absorbance at 450 nm was measured, then the percentage of erythrocyte lysis was determined using formula reported above.
(§2) Data shown are mean values±SEM obtained from at least four independent experiments all made in triplicate. For each experiment blood from a different donor was used.

whole blood = assay type: cell-based, human; settings: 1 h
Experimental: as §1, §2

CC[C@H](C)[C@H](NC(=O)[C@H](Cc1c[nH]c2ccccc12)NC(=O)[C@H](CCCCN)NC(=O)[C@H](CCCCN)NC(=O)[C@H](CC(C)C)NC(=O)[C@H](CCCNC(=N)N)NC(=O)[C@H](Cc1ccccc1)NC(=O)[C@@H](NC(=O)[C@@H](N)Cc1cnc[nH]1)C(C)C)C(=O)N[C@@H](CCC(N)=O)C(=O)N[C@@H](CCCCN)C(=O)N[C@H](C(=O)N[C@H](C(=O)N[C@@H](CC(=O)O)C(=O)N[C@@H](CCC(N)=O)C(=O)N[C@@H](Cc1ccccc1)C(=O)NCC(=O)N[C@@H](CCC(=O)O)C(=O)O)[C@@H](C)CC)C(C)C [HVF18, reference compound] (H-HVFRLKKWIQKVIDQFGE-OH)
Hemolytic activity, lysed RBCs (erythrocytes (RBCs); 50 μM): 28.5 ± 3.0 % | Hemolytic activity, lysed RBCs in whole blood (whole blood; 50 μM): <1* %

CC[C@H](C)[C@H](NC(=O)[C@H](Cc1c[nH]c2ccccc12)NC(=O)[C@H](CCCCN)NC(=O)[C@H](CCCCN)NC(=O)[C@H](CC(C)C)NC(=O)[C@H](CCCNC(=N)N)NC(=O)[C@H](Cc1ccccc1)NC(=O)[C@@H](NC(=O)[C@H](CCCCN)NC(=O)[C@H](CCCCN)NC(=O)[C@H](CCCCN)NC(=O)[C@@H](N)CCCCN)C(C)C)C(=O)N[C@@]1(C)CCCC=CCCC[C@@](C)(C(=O)N[C@@H](CCC(N)=O)C(=O)N[C@@H](Cc2ccccc2)C(=O)NCC(=O)N[C@@H](CCC(=O)O)C(=O)O)NC(=O)[C@H]([C@@H](C)CC)NC(=O)[C@H](C(C)C)NC(=O)[C@H](CCCCN)NC1=O [sKKKKVF18, KKKKVFRLKKWIX1KVIX2QFGE] (H-KKKKVFRLKKWI[S5]KVI[S5]QFGE-OH; staple 13-17)
Hemolytic activity, lysed RBCs (erythrocytes (RBCs)): 39.1 ± 5.4% | Hemolytic activity, lysed RBCs in whole blood (whole blood): <1%

CC[C@H](C)[C@H](NC(=O)[C@H](Cc1c[nH]c2ccccc12)NC(=O)[C@H](CCCCN)NC(=O)[C@H](CCCCN)NC(=O)[C@H](CC(C)C)NC(=O)[C@H](CCCNC(=N)N)NC(=O)[C@H](Cc1ccccc1)NC(=O)[C@@H](NC(=O)[C@H](CCCCN)NC(=O)[C@H](CCCCN)NC(=O)[C@@H](N)CCCCN)C(C)C)C(=O)N[C@@]1(C)CCCC=CCCC[C@@](C)(C(=O)N[C@@H](CCC(N)=O)C(=O)N[C@@H](Cc2ccccc2)C(=O)NCC(=O)N[C@@H](CCC(=O)O)C(=O)O)NC(=O)[C@H]([C@@H](C)CC)NC(=O)[C@H](C(C)C)NC(=O)[C@H](CCCCN)NC1=O [sKKKVF18, KKKVFRLKKWIX1KVIX2QFGE] (H-KKKVFRLKKWI[S5]KVI[S5]QFGE-OH; staple 12-16)
Hemolytic activity, lysed RBCs (erythrocytes (RBCs)): 47.1 ± 8.1% | Hemolytic activity, lysed RBCs in whole blood (whole blood): <1%

CC[C@H](C)[C@H](NC(=O)[C@H](Cc1c[nH]c2ccccc12)NC(=O)[C@H](CCCCN)NC(=O)[C@H](CCCCN)NC(=O)[C@H](CC(C)C)NC(=O)[C@H](CCCNC(=N)N)NC(=O)[C@H](Cc1ccccc1)NC(=O)[C@@H](NC(=O)[C@H](CCCCN)NC(=O)[C@@H](N)CCCCN)C(C)C)C(=O)N[C@@]1(C)CCCC=CCCC[C@@](C)(C(=O)N[C@@H](CCC(N)=O)C(=O)N[C@@H](Cc2ccccc2)C(=O)NCC(=O)N[C@@H](CCC(=O)O)C(=O)O)NC(=O)[C@H]([C@@H](C)CC)NC(=O)[C@H](C(C)C)NC(=O)[C@H](CCCCN)NC1=O [sKKVF18, KKVFRLKKWIX1KVIX2QFGE] (H-KKVFRLKKWI[S5]KVI[S5]QFGE-OH; staple 11-15)
Hemolytic activity, lysed RBCs (erythrocytes (RBCs)): 27.8 ± 3.0% | Hemolytic activity, lysed RBCs in whole blood (whole blood): <1%

CC[C@H](C)[C@H](NC(=O)[C@H](Cc1c[nH]c2ccccc12)NC(=O)[C@H](CCCCN)NC(=O)[C@@H](N)CCCCN)C(=O)N[C@@]1(C)CCCC=CCCC[C@@](C)(C(=O)N[C@@H](CCC(N)=O)C(=O)N[C@@H](Cc2ccccc2)C(=O)NCC(=O)N[C@@H](CCC(=O)O)C(=O)O)NC(=O)[C@H]([C@@H](C)CC)NC(=O)[C@H](C(C)C)NC(=O)[C@H](CCCCN)NC1=O [sKKW13, KKWIX1KVIX2QFGE] (H-KKWI[S5]KVI[S5]QFGE-OH; staple 5-9)
hemolytic activity, RBCs or whole blood (heatmaps FIG. 4, FIG. 20a), in words (erythrocytes (RBCs)): low hemolytic activity

CC[C@H](C)[C@H](NC(=O)[C@H](Cc1c[nH]c2ccccc12)NC(=O)[C@H](CCCCN)NC(=O)[C@H](CCCCN)NC(=O)[C@H](CC(C)C)NC(=O)[C@H](CCCNC(=N)N)NC(=O)[C@H](Cc1ccccc1)NC(=O)[C@@H](NC(=O)[C@@H](N)CCCCN)C(C)C)C(=O)N[C@@]1(C)CCCC=CCCC[C@@](C)(C(=O)N[C@@H](CCC(N)=O)C(=O)N[C@@H](Cc2ccccc2)C(=O)NCC(=O)N[C@@H](CCC(=O)O)C(=O)O)NC(=O)[C@H]([C@@H](C)CC)NC(=O)[C@H](C(C)C)NC(=O)[C@H](CCCCN)NC1=O [sKVF18, KVFRLKKWIXKVIXQFGE] (H-KVFRLKKWI[S5]KVI[S5]QFGE-OH; staple 10-14)
Hemolytic activity, lysed RBCs (erythrocytes (RBCs)): 51.4 ± 4.9% | Hemolytic activity, lysed RBCs in whole blood (whole blood): <1%

CC[C@H](C)[C@H](NC(=O)[C@H](Cc1c[nH]c2ccccc12)NC(=O)[C@H](CCCCN)NC(=O)[C@H](CCCCN)NC(=O)[C@@H](N)CC(C)C)C(=O)N[C@@]1(C)CCCC=CCCC[C@@](C)(C(=O)N[C@@H](CCC(N)=O)C(=O)N[C@@H](Cc2ccccc2)C(=O)NCC(=O)N[C@@H](CCC(=O)O)C(=O)O)NC(=O)[C@H]([C@@H](C)CC)NC(=O)[C@H](C(C)C)NC(=O)[C@H](CCCCN)NC1=O [sLKK14, LKKWIX1KVIX2QFGE] (H-LKKWI[S5]KVI[S5]QFGE-OH; staple 6-10)
hemolytic activity, RBCs or whole blood (heatmaps FIG. 4, FIG. 20a), in words (erythrocytes (RBCs)): low hemolytic activity

CC[C@H](C)[C@H](NC(=O)[C@H](Cc1c[nH]c2ccccc12)NC(=O)[C@H](CCCCN)NC(=O)[C@H](CCCCN)NC(=O)[C@H](CC(C)C)NC(=O)[C@H](CCCNC(=N)N)NC(=O)[C@H](Cc1ccccc1)NC(=O)[C@@H](NC(=O)[C@H](CCCNC(=N)N)NC(=O)[C@H](CCCNC(=N)N)NC(=O)[C@H](CCCNC(=N)N)NC(=O)[C@@H](N)CCCNC(=N)N)C(C)C)C(=O)N[C@@]1(C)CCCC=CCCC[C@@](C)(C(=O)N[C@@H](CCC(N)=O)C(=O)N[C@@H](Cc2ccccc2)C(=O)NCC(=O)N[C@@H](CCC(=O)O)C(=O)O)NC(=O)[C@H]([C@@H](C)CC)NC(=O)[C@H](C(C)C)NC(=O)[C@H](CCCCN)NC1=O [sRRRRVF18, RRRRVFRLKKWIX1KVIX2QFGE] (H-RRRRVFRLKKWI[S5]KVI[S5]QFGE-OH; staple 13-17)
Hemolytic activity, lysed RBCs (erythrocytes (RBCs)): 64.9 ± 11.4% | Hemolytic activity, lysed RBCs in whole blood (whole blood): <1%

CC[C@H](C)[C@H](NC(=O)[C@H](Cc1c[nH]c2ccccc12)NC(=O)[C@H](CCCCN)NC(=O)[C@H](CCCCN)NC(=O)[C@H](CC(C)C)NC(=O)[C@H](CCCNC(=N)N)NC(=O)[C@H](Cc1ccccc1)NC(=O)[C@@H](NC(=O)[C@H](CCCNC(=N)N)NC(=O)[C@H](CCCNC(=N)N)NC(=O)[C@@H](N)CCCNC(=N)N)C(C)C)C(=O)N[C@@]1(C)CCCC=CCCC[C@@](C)(C(=O)N[C@@H](CCC(N)=O)C(=O)N[C@@H](Cc2ccccc2)C(=O)NCC(=O)N[C@@H](CCC(=O)O)C(=O)O)NC(=O)[C@H]([C@@H](C)CC)NC(=O)[C@H](C(C)C)NC(=O)[C@H](CCCCN)NC1=O [sRRRVF18, RRRVFRLKKWIX1KVIX2QFGE] (H-RRRVFRLKKWI[S5]KVI[S5]QFGE-OH; staple 12-16)
Hemolytic activity, lysed RBCs (erythrocytes (RBCs)): 61.5 ± 6.2% | Hemolytic activity, lysed RBCs in whole blood (whole blood): <1%

— patent publication US20250313820A1, “PEPTIDES WITH MULTIVALENT EFFECTS” (In2Cure AB, priority 2021, published 2025)
